7 compounds from patent US8084602B2, “Porphyrin derivatives and their use in photodynamic therapy” (Destiny Pharma Limited, priority 2002, dated 2011) can be followed below.

Where two headings read alike, the source gives them in different places.

In assay [1] the test system is Staphylococcus aureus (methicillin-resistant strain ATTC BAA-44). As to the kind of experiment: Initial screening: growth inhibition after white light illumination. In kind it is cell-based. The following applies: for inhibition at 3 µM: Staphylococcus aureus; for Growth inhibition (%): S. aureus, 3 μM, 5 min incubation. How it is done:
(§1) The toxic effects of exemplary compounds of the invention against two bacterial strains, the Gram negative bacterium Escherichia coli (strain ATCC 25922) and the Gram positive bacterium Staphylococcus aureus (methicillin-resistant strain ATTC BAA-44), were evaluated by measuring the extent of growth inhibition (bacteriostatic effect) and growth […] (cytocidal effect) in the dark and upon light exposure. Initial compound screening was undertaken using white light [390-740 nm] (150 mW/cm^2) for various timepoints of a concentration of 3 μM (see Table 1). Further experiments were undertaken on those compounds identified from this initial screen using a light source emitting light at a wavelength between 417-420 nm at 15.2 mW/cm^2, 13.68 J/cm^2 (Waldmann Eclairage SA, France) (see Table 20.
(§2) The following protocol was used for the initial screening of the exemplary compounds (Table 1) (see Reddi et al., 2002, Photochem. Photobiol. 75(5):462-470): • (i) E. coli and S. aureus cells were grown overnight on brain heart infusion agar, resuspended in brain heart infusion broth, harvested by centrifugation (3000 g for 15 minutes) and washed once with phosphate buffered saline (PBS) at pH 7.4 consisting 2.7 mM KCl and 0.14 M NaCl. • (ii) The cells were then resuspended in PBS to an optical density at 650 nm of 0.7, which corresponds to a density of 10^8 to 10^9 cells/ml. • (iii) Next, the cells were incubated in PBS in the dark for 5 minutes with 3.0 μM of the compound to be tested. • (iv) After dark incubation, cells were illuminated with white light (wavelength: 390 to 740 nm) (150 mW/cm^2) for up to 30 minutes. During illumination, the cells were kept at 37° C. and magnetically stirred. • (v) Finally, treated and untreated (control) cells were diluted in brain heart infusion broth and maintained at […] while the absorbance of the suspension at 650 nm was monitored at predetermined time points for determining growth curves.
(§3) The percent of growth inhibition in the treated cells was calculated by the following equation: [1−(Ax−A0)/(Ac−A0)]×100 where Ax Ac are the absorbances measured after 3 hours incubation, for the treated and control cell suspensions, respectively, and A0 represents the initial absorbance.

The test system of assay [2] is Escherichia coli (strain ATCC 25922). Described as above. In kind it is cell-based. The settings on record: for Growth inhibition (%): E. coli, 3 μM, 5 min incubation; for inhibition at 3 µM: Escherichia coli. How it is done:
as §1, §2, §3

Where [3] appears, read: BAA44, 5 min, read-out: Growth inhibition (%), S. aureus, 5 min incubation, illumination time 5 min.
Setting [4] is: BAA44, read-out: Growth inhibition (%), S. aureus, 5 min incubation, illumination time 0 min.
The mark [5] stands for this setting: BAA44, read-out: Growth inhibition (%), S. aureus, 5 min incubation, illumination time 1 min.
Where [6] appears, read: BAA44, read-out: Growth inhibition (%), S. aureus, 5 min incubation, illumination time 10 min.
[7] abbreviates: BAA44, read-out: Growth inhibition (%), S. aureus, 5 min incubation, illumination time 15 min.
Setting [8] is: BAA44, read-out: Growth inhibition (%), S. aureus, 5 min incubation, illumination time 30 min.

On to `CCCCCCCCCCCOc1ccc(-c2c3nc(c(-c4ccc(OCCCCCCCCCCC)cc4)c4ccc([nH]4)c(-c4ccc(OCCC[N+](C)(C)C)cc4)c4nc(c(-c5ccc(OCCC[N+](C)(C)C)cc5)c5ccc2[nH]5)C=C4)C=C3)cc1` [Compound 29, 5,10-bis-[4-(3-Trimethylammonio-propyloxy)-phenyl]-15,20-bis-(4-undecyloxy-phenyl)-porphyrin dichloride, reference compound], for which the inhibition (in general, the change of the read-out against control, counted positive when it falls) at 3 µM in assay [1] (setting [3]) amounted to 49%; in assay [1] (setting [4]), 14%; in assay [1] (setting [5]), 43%; in assay [1] (setting [6]), 53%; in assay [1] (setting [7]) it was 55%; in assay [1] (setting [8]) it was 55%.

In the case of “5,10,15-tris-[4-(3-Trimethyl-ammoniopropyloxy)-phenyl]-20-(4-tetradecyloxy-phenyl)-porphyrin trichloride [Compound 36, reference compound]”, the “Growth inhibition (%)” value stood at 6% in assay [2] (illumination time 0 min); 56% in assay [2] (illumination time 1 min); 84% in assay [2] (illumination time 5 min); 90% in assay [2] (illumination time 10 min); 92% in assay [2] (illumination time 15 min); 95% in assay [2] (illumination time 30 min). Further, the “Growth inhibition (%)” value is 22% in assay [1] (illumination time 0 min); 96% in assay [1] (illumination time 1 min); 100% in assay [1] (illumination time 5 min); 100% in assay [1] (illumination time 10 min); 100% in assay [1] (illumination time 15 min); 100% in assay [1] (illumination time 30 min).

In the case of “5,10,15-tris[3-(3-Trimethyl-ammoniopropyloxy)-phenyl]-20-(3-undecyloxy-phenyl)-porphyrin trichloride [Compound 33, reference compound]”, the “Growth inhibition (%)” value in assay [2] (illumination time 0 min) amounted to 6%; in assay [2] (illumination time 1 min), 10%; in assay [2] (illumination time 5 min), 25%; in assay [2] (illumination time 10 min) it was 53%; in assay [2] (illumination time 15 min), 67%; in assay [2] (illumination time 30 min), 78%. Further, the “Growth inhibition (%)” value in assay [1] (illumination time 0 min) amounted to 22%; in assay [1] (illumination time 1 min), 57%; in assay [1] (illumination time 5 min) it was 99%; in assay [1] (illumination time 10 min) it was 100%; in assay [1] (illumination time 15 min) it was 100%; in assay [1] (illumination time 30 min), 100%.

With “5-[4-(3-Dimethyldecyl-ammoniopropyloxy)-phenyl]-15-{4-[3-dimethyl-(3-dimethylaminopropyl)-ammoniopropyloxy]-phenyl}-porphyrin dichloride [Compound 32]”, the “Growth inhibition (%)” value in assay [2] (illumination time 0 min) was found to be 3%; in assay [2] (illumination time 1 min) it was 10%; in assay [2] (illumination time 5 min), 16%; in assay [2] (illumination time 10 min), 22%; in assay [2] (illumination time 15 min), 22%; in assay [2] (illumination time 30 min), 38%. In addition, the “Growth inhibition (%)” value is listed as 23% in assay [1] (illumination time 0 min); 100% in assay [1] (illumination time 1 min); 100% in assay [1] (illumination time 5 min); 100% in assay [1] (illumination time 10 min); 100% in assay [1] (illumination time 15 min); 100% in assay [1] (illumination time 30 min).

For “5-{4-[3-Dimethyl-(3-trimethylammonio-propyl)-ammonio-propyloxy]-phenyl}-15-(4-dodecyloxy-phenyl)-porphyrin dichloride [Compound 31]”, the “Growth inhibition (%)” value was determined as 9% in assay [1] (illumination time 0 min); 28% in assay [1] (illumination time 1 min); 38% in assay [1] (illumination time 5 min); 78% in assay [1] (illumination time 10 min); 82% in assay [1] (illumination time 15 min); 83% in assay [1] (illumination time 30 min).

Take `CCCCCCCCCCCOc1ccc(-c2c3nc(c(-c4ccc(OCCC[N+](CC)(CC)CC)cc4)c4ccc([nH]4)c(-c4ccc(OCCC[N+](CC)(CC)CC)cc4)c4nc(c(-c5ccc(OCCC[N+](CC)(CC)CC)cc5)c5ccc2[nH]5)C=C4)C=C3)cc1` [Compound 16, 5,10,15-tris-[4-(3-Triethylammonio-propyloxy)-phenyl]-20-(4-undecyloxy-phenyl)-porphyrin trichloride, reference compound]: the inhibition at 3 µM in assay [2] (ATCC25922, 5 min, read-out: Growth inhibition (%), E. coli, 5 min incubation, illumination time 5 min) worked out at 92%; in assay [2] (ATCC25922, read-out: Growth inhibition (%), E. coli, 5 min incubation, illumination time 0 min) it was 8%; in assay [2] (ATCC25922, read-out: Growth inhibition (%), E. coli, 5 min incubation, illumination time 1 min), 34%; in assay [2] (ATCC25922, read-out: Growth inhibition (%), E. coli, 5 min incubation, illumination time 10 min), 99%; in assay [2] (ATCC25922, read-out: Growth inhibition (%), E. coli, 5 min incubation, illumination time 15 min) it was 100%; in assay [2] (ATCC25922, read-out: Growth inhibition (%), E. coli, 5 min incubation, illumination time 30 min), 100%. The inhibition at 3 µM in assay [1] (setting [3]) was 100%; in assay [1] (setting [4]) it was 12%; in assay [1] (setting [5]), 97%; in assay [1] (setting [6]), 100%; in assay [1] (setting [7]), 100%; in assay [1] (setting [8]), 100%.

Consider “5,15-bis-[3-(3-Trimethylammmonio-proploxy)-phenyl]-10-undecyl-porphyrin dichloride [Compound 28]”, for which the “Growth inhibition (%)” value is reported as 4% in assay [2] (illumination time 0 min); 21% in assay [2] (illumination time 1 min); 60% in assay [2] (illumination time 5 min); 73% in assay [2] (illumination time 10 min); 81% in assay [2] (illumination time 15 min); 92% in assay [2] (illumination time 30 min). For the same compound, the “Growth inhibition (%)” value in assay [1] (illumination time 0 min) stood at 15%; in assay [1] (illumination time 1 min) it was 91%; in assay [1] (illumination time 5 min) it was 100%; in assay [1] (illumination time 10 min), 100%; in assay [1] (illumination time 15 min), 100%; in assay [1] (illumination time 30 min), 100%.
